The source of these data is patent US4419351A, “Platinum-dioxopyrimidine complexes” (priority 1978, dated 1983).

Data set [1] concerns Mice Kidneys (proximal convoluted tubules). Also noted: species or system female Swiss White mice. The settings on record: mouse, in vivo. From the text: The protocols for these tests were as follows: Each group contained six female Swiss White mice; the tumored animals were given a transplant of a solid Sarcoma-180 tumor on day 0 and treatment was initiated on day 1; the animals were sacrificed on day 10 and the kidneys removed and prepared for histological evaluation; control groups were non-tumored, non-treated animals, and tumored, non-treated animals. Multiple sections of each kidney were examined. […] The saturation concentration cannot be specified other than an estimate of less than 1 mg/100 ml. A very brief summary of the results are compiled in Table 8. The histopathologic degenerative changes are dose dependent in all cases.

The test system of data set [2] is ascites Sarcoma-180 tumor. The experiment in a line: schedule dependency tests of antitumor activity (Table 3). In kind it is in vivo, Swiss White mice. The settings on record: for # of cures / Best % ILS / Dose of Best % ILS: saline. The method, then: The chemotherapeutic activities of the "Platinum Blue" complexes were determined using the ascites Sarcoma-180 tumor in Swiss White mice. The protocols for these tests were as follows: Random bred female Swiss White mice (Spartan Laboratory, Williamston, Mich.) of 18-20 grams weight were randomized in groups of six. The ascites cells were removed from the peritoneal cavities of animals with approximately 10 day old ascites tumors. The cells were washed several times with 0.85% saline and spun down each time in a refrigerated centrifuge for 3-5 minutes at 750 r.p.m. After the blood was removed from the cells, they were diluted with 0.85% saline solution and counted in a hemocytometer. A final dilution of 2×10^7 cells/ml. in saline was made. Each animal received 0.2 ml. of this suspension (4×10^6 cells/animals). This was injected intraperitoneally on day 0 of each test. Two groups (12 animals) were kept as negative controls, and the test was terminated at twice the mean day of death of the negative controls. […] Soluble compounds were always tested in appropriate solutions, the insoluble ones as a slurry. The slurry was sonicated for periods of up to 10 minutes to insure uniformity of dispersion just prior to injections. […] Retests were performed if a sufficient level of drug toxicity at the highest dose was not reached. Animals still alive at the completion of the tests were considered to have died on the day of evaluation. Animals showing no abdominal distention (by palpation, or visibly) on this day were considered cured.

Data set [3] relates to ADJ/PC6A Tumor. The data set is described as follows: effects on ADJ/PC6A tumor (Table 7). The settings on record: i.p., single dose, 24 days after tumor implant. The class given is in vivo, Female, C^- Mice.
Data set [4] has as its system Ehrlich Ascites Tumor. The experiment in a line: survival times of mice bearing the Ehrlich ascites tumor (Table 6). The class given is in vivo. The settings on record: 7 mg/kg; for Mean Survival Time (+ S.D.): single i.p. day 3. The source says: (§1) Tables 4-7, respectively, tabulate the results achieved when employing the complexes of the invention against the L1210, MCDV 12, (Rauscher Leukemia, virus-induced), Ehrlich Ascites and the ADJ PC6A (myeloma) tumors.
^a 6 mice/group; each mouse received 10^7 ascites tumor cells on
day 0; treatment was as a single i. p. injection on day 3.

In data set [5] the test system is ascites Sarcoma-180 tumor. The experiment in a line: chemotherapeutic activity vs ascites Sarcoma-180 tumor, single i.p. injection on day 1 (Table 2 survey). In kind it is in vivo, Swiss White mice. The settings on record: carrier saline. As for the experimental part: The chemotherapeutic activities of the "Platinum Blue" complexes were determined using the ascites Sarcoma-180 tumor in Swiss White mice. The protocols for these tests were as follows: Random bred female Swiss White mice (Spartan Laboratory, Williamston, Mich.) of 18-20 grams weight were randomized in groups of six. The ascites cells were removed from the peritoneal cavities of animals with approximately 10 day old ascites tumors. The cells were washed several times with 0.85% saline and spun down each time in a refrigerated centrifuge for 3-5 minutes at 750 r.p.m. After the blood was removed from the cells, they were diluted with 0.85% saline solution and counted in a hemocytometer. A final dilution of 2×10^7 cells/ml. in saline was made. Each animal received 0.2 ml. of this suspension (4×10^6 cells/animals). This was injected intraperitoneally on day 0 of each test. Two groups (12 animals) were kept as negative controls, and the test was terminated at twice the mean day of death of the negative controls. […] All test compounds were injected i.p. on day one as a 0.5 ml. volume of the compound in a carrier of water, physiologic saline or arachis oil (peanut oil). Soluble compounds were always tested in appropriate solutions, the insoluble ones as a slurry. The slurry was sonicated for periods of up to 10 minutes to insure uniformity of dispersion just prior to injections. […] Retests were performed if a sufficient level of drug toxicity at the highest dose was not reached. Animals still alive at the completion of the tests were considered to have died on the day of evaluation. Animals showing no abdominal distention (by palpation, or visibly) on this day were considered cured.
The compounds tested were usually freshly prepared and purified. The compounds kept for further testing were stored in a vacuum dessicator in a dark refrigerator to prevent deterioration. […] Toxic levels are considered to be that concentration where 2 or more of the 6 animals at the dose died within 8 days of injection.
The letter A indicates the "blue" or first isolated precipitate, the letter B, the "green" or second precipitate.

Data set [6] concerns MCDV 12 (Rauscher Leukemia, Virus Induced). The data set is described as follows: effects on MCDV 12 (Rauscher Leukemia, virus induced) (Table 5). In kind it is in vivo, BALB/C Mice. The settings on record: for Survivors: at 200% ILS.
Text: as §1
^a All experiments were terminated arbitrarily at 200% ILS and
survivors tabulated at that time. All therapy was started on third day
after tumor transplant. Untreated tumor controls died 10-11 days after
transplant. In some instances, efforts to reproduce above results have
shown considerable variability.

Data set [7] deals with Escherichia coli-wild type. The experiment in a line: anti-microbial activity, growth in test tube cultures (Table 9). In kind it is cell-based. As for the experimental part:
The following procedure was utilized to test the anti-microbal activity of the platinum complexes. The tests were performed with Escherichia coli-wild type, growing in test tube cultures. Using standardized techniques, growth in the medium was examined after the incorporation of the various test chemicals, using the increase in the optical density of the medium as against time. The bacteria were also periodically examined under a phase contrast microscope for evidence of elongation (filmentation).

Where two headings read alike, the source gives them in different places.

Consider `[Cl][Pt+2][Cl].[NH-]C1CCCC1.[NH-]C1CCCC1` [cis-dichloro(bis)cyclopentylamineplatinum(II)], for which the “saturation concentration in saline” value was “less than 1 mg/100 ml”. Further, the “histopathologic degenerative changes at higher dose levels” value in data set [1] is on record as “generalized vacuolar (hydropic) degeneration of the proximal convoluted tubules”.
As for `N.N.[Cl][Pt][Cl]` [cis-dichlorodiammineplatinum(II)], the “# of cures” value in data set [2] (day 1, 1 injection) is 1; in data set [2] (every 5th day, 5 injections, 6 animals per test), 3; in data set [2] (every 3 hrs., 8 injections, 6 animals per test), 5; in data set [2] (every day, 5 injections, 6 animals per test) it was 3; in data set [5] (positive control, of 12 animals), 1. Also, the “Best % ILS” value is reported as 42 (S.D. ± 3.1) % in data set [2] (day 1, 1 injection); 83% in data set [2] (every 5th day, 5 injections); 86% in data set [2] (every 3 hrs., 8 injections); 19% in data set [2] (every day, 5 injections). Besides, the “Dose of Best % ILS” value is reported as 7 mg/kg in data set [2] (day 1, 1 injection); 5 mg/kg in data set [2] (every 5th day, 5 injections); 1 mg/kg in data set [2] (every 3 hrs., 8 injections); 3 mg/kg in data set [2] (every day, 5 injections); 7 mg/kg in data set [5] (single i.p. day 1). Further, the “animals died within 9 days of start (remainder cured)” value in data set [2] (every day, 5 injections, 3 mg/kg) is “Three”. Besides, the “ID 90 (90% Inhibition)” value in data set [3] worked out at 1.6 mg/kg. Moreover, the “% Increase in Mean Survival Time” value in data set [4] (first experiment) turned out to be 307%; in data set [4] (second experiment), 194%. Further, the “Mean Survival Time (+ S.D.)” value in data set [4] (first experiment (control 8.3 days)) was 33.8 ± 16.9 days; in data set [4] (second experiment (control 10.1 days)), 29.7 ± 4.2 days. The “animals that survived > 60 days” value in data set [4] (first experiment, 6 mice/group) is 2 animals. Besides, the “Best % ILS (increase in lifespan)” value in data set [5] (single i.p. day 1, max 100%) is given as 49 (S.D ± 2.82) %. For the same compound, the “histopathologic degenerative changes at higher dose levels” value in data set [1] is given as “generalized vacuolar (hydropic) degeneration of the proximal convoluted tubules”. The “Observed Renal Histopathological Changes” value in data set [1] (0.5 mg/kg) is reported as “normal”; in data set [1] (1 mg/kg) it was “normal”; in data set [1] (2 mg/kg), “mild degenerative changes (cloudy swelling)”; in data set [1] (3 mg/kg), “mild degenerative changes (cloudy swelling)”; in data set [1] (7 mg/kg) it was “extensive degenerative changes (hydropic degeneration)”. The “% ILS” value was 146% in data set [6] (5 mg/kg × 1), 62% in data set [6] (8 mg/kg × 1) and -15% in data set [6] (16 mg/kg × 1). Further, the Survivors in data set [6] (5 mg/kg × 1) is recorded as 2/3; in data set [6] (8 mg/kg × 1) it was 0/2; in data set [6] (16 mg/kg × 1), 0/3. Moreover, the “Optical Density of Bacterial Cultures” value in data set [7] (7 ppm, 1:45 p.m., first run) is given as “.74”; in data set [7] (7 ppm, 2:45 p.m., first run) it was “.78”; in data set [7] (7 ppm, 9:30 a.m., first run) it was “.19”; in data set [7] (7 ppm, 10:45 a.m., first run) it was “.31”; in data set [7] (7 ppm, 11:45 a.m., first run) it was “.44”; in data set [7] (7 ppm, 12:45 p.m., first run), “.62”. In addition, the “Optical Density of Bacterial Cultures” value in data set [7] (10 ppm, 1:00 p.m., second run) was “.49”; in data set [7] (10 ppm, 2:00 p.m., second run), “.55”; in data set [7] (10 ppm, 3:20 p.m., second run) it was “.60”; in data set [7] (10 ppm, 9:30 a.m., second run) it was “.12”; in data set [7] (10 ppm, 11:00 a.m., second run), “.26”; in data set [7] (10 ppm, 12:00 p.m., second run), “.37”.
